Earlier results on one compound are cited in patent publication US20180028686A1 (priority 2014, published 2018).

The data set deals with RVFV.

In the case of `NC(=O)c1ncn([C@@H]2O[C@H](CO)[C@@H](O)[C@H]2O)n1` [Ribavirin, ribavirin], the IC50 values result was “low micromolar range”.
